Test results from patent US12697326B2, “Methods of treating hepatic encephalopathy” (SALIX PHARMACEUTICALS, INC., priority 2008, dated 2026).

Key:
patients with HE [1] = conditions: 6-month study; rifaximin 1200 mg/day, neomycin 3 g/day; 14 days on, 14 days off per month; cited from earlier work
patients with HE [2] = experiment: Retrospective chart review of 145 patients with HE, lactulose then rifaximin; type: in vivo, human
Excerpt: Total number of hospitalizations, duration of hospitalizations, HE endpoints, and cost of therapy were compared between the 2 treatment regimens.

[3] = tested on: liver transplant patients with HE; experiment: Chart review of 39 liver transplant patients with HE Conn scores of 2; type: in vivo, human; conditions: 24 lactulose, 15 rifaximin

Molecule	efficacy in patients with HE, rifaximin versus neomycin (patients with HE [1])	patients with Conn scores of 3 or 4 at end of treatment period (patients with HE [2]) [%]	hospitalizations reported for the group [3]
neomycin	comparable efficacy		
OC[C@H]1O[C@@H](O[C@@H]2[C@@H](CO)OC(O)(CO)[C@H]2O)[C@H](O)[C@@H](O)[C@H]1O (mixture of isomers) [lactulose]		25	Nineteen
